Measured values published in ChEMBL document CHEMBL3763068, “Recent developments of 2-aminothiazoles in medicinal chemistry” (Eur J Med Chem, 2016).

Assays:
[1] = tested on: Human immunodeficiency virus 1; experiment: Antiviral activity against HIV1 3B coinfected with HTLV in human PBMC assessed as inhibition of viral p24 antigen production after 7 days by ELISA; assay type: functional, organism-based; conditions: Human immunodeficiency virus 1, 3B, 168 h
[2] = Selectivity index, ratio of CC50 for human PBMC to IC50 for HIV1 3B; assay type: functional
[3] = Antiprion activity against […] RML PrPSc infected in mouse N2A cells after 6 days by ELISA; assay type: cell-based; conditions: 144 h
[4] = Drug uptake in po dosed mouse brain measured after 3 days; assay type: ADME, organism-based; conditions: read-out: Drug uptake
[5] = Cytotoxicity against human Hep3B cells assessed as growth inhibition after 48 hrs by MTT assay; assay type: functional, cell-based, Hep 3B2
[6] = biological target: High affinity nerve growth factor receptor (Homo sapiens, UniProt P04629); experiment: Inhibition of human recombinant N-terminal His6-tagged TRKA cytoplasmic domain (residues 440)
Chain of High affinity nerve growth factor receptor (P04629 whole entry, the tested form may be a part): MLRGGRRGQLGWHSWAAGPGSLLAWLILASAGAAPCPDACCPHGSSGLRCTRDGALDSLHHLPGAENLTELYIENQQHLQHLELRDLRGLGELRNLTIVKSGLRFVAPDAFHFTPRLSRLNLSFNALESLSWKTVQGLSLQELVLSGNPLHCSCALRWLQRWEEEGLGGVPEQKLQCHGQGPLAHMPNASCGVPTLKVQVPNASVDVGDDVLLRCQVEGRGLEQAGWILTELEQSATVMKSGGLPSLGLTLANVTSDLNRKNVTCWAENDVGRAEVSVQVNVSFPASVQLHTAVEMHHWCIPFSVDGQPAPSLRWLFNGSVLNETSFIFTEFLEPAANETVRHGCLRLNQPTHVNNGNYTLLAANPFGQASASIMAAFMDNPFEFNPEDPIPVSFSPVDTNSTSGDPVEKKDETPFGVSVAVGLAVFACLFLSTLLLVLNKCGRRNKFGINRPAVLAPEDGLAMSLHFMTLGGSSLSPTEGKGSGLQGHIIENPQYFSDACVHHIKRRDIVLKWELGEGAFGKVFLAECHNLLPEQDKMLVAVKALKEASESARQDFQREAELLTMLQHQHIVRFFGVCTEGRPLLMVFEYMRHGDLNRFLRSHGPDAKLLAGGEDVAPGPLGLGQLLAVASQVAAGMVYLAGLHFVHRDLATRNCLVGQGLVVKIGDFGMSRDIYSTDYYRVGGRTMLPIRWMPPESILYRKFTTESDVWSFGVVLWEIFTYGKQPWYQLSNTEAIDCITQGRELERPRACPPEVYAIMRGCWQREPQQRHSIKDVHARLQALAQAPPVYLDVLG

Compound | IC50 [1] [nM] | Ratio CC50/IC50 [2] | also measured
S=C(NCc1ccco1)Nc1nccs1 | < 1 | >100000 | 
Cc1ccc(Nc2nc(-c3cc(-c4ccccc4)no3)cs2)nc1 |  |  | EC50 [3]: 940 nM; concentration at 72 h [4]: 25 µM
S=C(NCCOc1ccccc1)Nc1nccs1 | < 1 | >100000 | 
O=C(CCc1ccco1)Nc1nc(-c2ccccc2)cs1 |  |  | IC50 [5]: 40 nM; IC50 [6]: 13 nM
